Consider 22 compounds from PubChem BioAssay (NCI).

Among the test systems are MOLT-4 leukemia; A549 NSCLC; HCT-15 colon; BT-549 breast; NCI-H226 lung; SF-268 CNS; MDA-N; KM12 colon; HOP-62 NSCLC.
Test in all cases: NCI-60 cell line screen, 48 h

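96-well plates; 48 h exposure; 5 concentrations. Endpoints by linear interpolation between flanking doses. Not reached: highest tested concentration assigned. TGI: total growth inhibition.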 Bounds are passed on as bounds.

On to `C=CCC(C(=O)Nc1cccc2[nH]cnc12)C(=O)OCC` (stereo not drawn), for which the TGI with MOLT-4 leukemia, with A549 NSCLC, in the test with HCT-15 colon, with BT-549 breast, in the test on NCI-H226 lung and in the test with SF-268 CNS was > 100 µM each time. Further, the TGI in the test with MDA-N, in the test on KM12 colon and in the test with HOP-62 NSCLC was > 100 µM each time.
Consider `CC1=C(C)C(=O)C(C2=CC(=O)C=CC2=O)=C(C2=CC(=O)C=CC2=O)C1=O`, for which the TGI was 44.8 µM in the test with MOLT-4 leukemia; > 100 µM in the test on A549 NSCLC; > 100 µM in the test on HCT-15 colon; > 100 µM with BT-549 breast; > 100 µM in the test on NCI-H226 lung; > 100 µM in the test with SF-268 CNS. Also, the TGI was > 59.3 µM in the test on MDA-N, > 100 µM in the test on KM12 colon and > 100 µM in the test on HOP-62 NSCLC.
`CC1(C)CCc2c(c(N=Nc3ccc(F)cc3)c3ccccc3c2O)O1`: the TGI in the test on MOLT-4 leukemia is > 100 µM; in the test on A549 NSCLC, 32.2 µM; in the test on HCT-15 colon, > 100 µM; in the test with BT-549 breast, > 100 µM; in the test on NCI-H226 lung, > 100 µM; in the test on SF-268 CNS it was > 100 µM. For the same compound, the TGI in the test on MDA-N is 31.5 µM; with KM12 colon it was > 100 µM; in the test with HOP-62 NSCLC, 57.3 µM.
`Cc1cc(S(=O)(=O)/N=C(/NN)NNc2cccc(C(F)(F)F)n2)c(S)cc1Cl`: the TGI in the test with MOLT-4 leukemia was 45.7 µM; in the test with A549 NSCLC, 44.1 µM; with HCT-15 colon, 38.2 µM; with BT-549 breast, 36.7 µM; with NCI-H226 lung, 46 µM; with SF-268 CNS, 57.4 µM. For the same compound, the values for the TGI in the test with MDA-N, with KM12 colon and with HOP-62 NSCLC were 29.2 µM, 37.2 µM and 86.4 µM, respectively.
As for `Cc1sc2nc3n(c(=O)c2c1C)N=CN(c1ccc(F)cc1)C3`, the TGI in the test on MOLT-4 leukemia, with A549 NSCLC, with HCT-15 colon, in the test with BT-549 breast, in the test with NCI-H226 lung and in the test with SF-268 CNS was > 100 µM in each case. Besides, the TGI in the test on MDA-N, in the test with KM12 colon and with HOP-62 NSCLC was > 100 µM throughout.
`O=[N+]([O-])C(Cl)=C/C(=C(\Cl)SCc1ccccc1)[N+](=O)[O-]`: the TGI is 46.9 µM in the test on MOLT-4 leukemia; 73.5 µM in the test with A549 NSCLC; 35.5 µM in the test with HCT-15 colon; 50.2 µM with BT-549 breast; 75.9 µM in the test with NCI-H226 lung; > 100 µM with SF-268 CNS. Also, the TGI in the test with MDA-N was 69.8 µM; in the test on KM12 colon, > 100 µM; with HOP-62 NSCLC, 36.2 µM.
As to `CCN1CCC(O)(/C=C/c2ccc(C(C)C)cc2)C(C(=O)/C=C/c2ccc(C(C)C)cc2)C1` (stereo not drawn), the TGI was 5.18 µM in the test on MOLT-4 leukemia; 11.5 µM in the test on A549 NSCLC; 4.63 µM in the test on HCT-15 colon; 16.2 µM with BT-549 breast; 9.06 µM in the test with NCI-H226 lung; 4.31 µM in the test on SF-268 CNS. In addition, the TGI is 5 µM in the test with MDA-N, 4.87 µM in the test with KM12 colon and 13.3 µM with HOP-62 NSCLC.
Consider `Cc1ccc([N+](=O)[O-])c2c(NCC(O)CO)ccnc12` (stereo not drawn), for which the TGI with MOLT-4 leukemia, in the test with A549 NSCLC, in the test on HCT-15 colon, with BT-549 breast, in the test on NCI-H226 lung and in the test with SF-268 CNS was > 100 µM throughout. Moreover, the TGI with MDA-N, in the test on KM12 colon and in the test with HOP-62 NSCLC was > 100 µM in each case.
Turning to `COc1ccc(Nc2nc(N)c(C(=O)c3cccs3)s2)cc1`, the TGI in the test with MOLT-4 leukemia is 17.2 µM; with A549 NSCLC, > 47.8 µM; with HCT-15 colon it was > 49.1 µM; in the test on BT-549 breast it was > 100 µM; in the test with NCI-H226 lung, 19.2 µM; with SF-268 CNS, > 100 µM. Moreover, the figures for the TGI with MDA-N, with KM12 colon and in the test on HOP-62 NSCLC were > 82.4 µM, 15.9 µM and > 67.7 µM, respectively.
As for `Cc1c(C(=O)O)n2cnnc2c2ccccc12`, the TGI with MOLT-4 leukemia, with A549 NSCLC, with HCT-15 colon, with BT-549 breast, with NCI-H226 lung and with SF-268 CNS was > 100 µM throughout. Moreover, the TGI in the test with MDA-N, in the test on KM12 colon and in the test on HOP-62 NSCLC was > 100 µM throughout.
In the case of `CC(C)(C)OC(=O)NCC(=O)N1CCN(C(=O)CNC(=O)OC(C)(C)C)CC1`, the TGI in the test on MOLT-4 leukemia was > 100 µM; in the test on A549 NSCLC, > 100 µM; in the test on HCT-15 colon, > 100 µM; in the test with BT-549 breast, > 100 µM; with NCI-H226 lung, > 100 µM; in the test with SF-268 CNS it was 39.7 µM. Further, the TGI in the test on MDA-N, in the test on KM12 colon and with HOP-62 NSCLC was > 100 µM throughout.
`CCOC(=O)[C@@H]1ON2OC(OC3CCCC3(c3ccccc3)c3ccccc3)C(OC(C)=O)[C@H]3OC(=O)[C@@H]1C32` (stereo partly drawn): the TGI in the test on MOLT-4 leukemia, with A549 NSCLC, with HCT-15 colon, in the test on BT-549 breast, with NCI-H226 lung and in the test on SF-268 CNS was > 100 µM each time. For the same compound, the TGI with MDA-N, with KM12 colon and with HOP-62 NSCLC was > 100 µM throughout.
As for `OC1C[C@H](c2ccccc2)C2(C(O)c3ccccc3C2O)[C@@H](c2ccccc2)C1` (stereo partly drawn), the TGI in the test with MOLT-4 leukemia, in the test on A549 NSCLC, in the test on HCT-15 colon, in the test on BT-549 breast, in the test on NCI-H226 lung and in the test on SF-268 CNS was > 100 µM throughout. In addition, the TGI with MDA-N, in the test with KM12 colon and in the test on HOP-62 NSCLC was > 100 µM throughout.
On to `C[C@H]1COC2=C1C(=O)C(=O)c1c2ccc2c1CCCC2(C)C`, for which the TGI with MOLT-4 leukemia was > 56.2 µM; in the test on A549 NSCLC, 4.55 µM; with HCT-15 colon it was 18.6 µM; in the test on BT-549 breast, 5.71 µM; in the test on NCI-H226 lung it was 24.1 µM; with SF-268 CNS it was 44.4 µM. The TGI in the test on MDA-N came to 3.26 µM; in the test with KM12 colon, 37 µM; in the test on HOP-62 NSCLC, 21.2 µM.
As for `CSc1scc2c1/C(=N/NC(N)=O)CCC2`, the TGI in the test with MOLT-4 leukemia, in the test on A549 NSCLC, in the test with HCT-15 colon, with BT-549 breast, in the test on NCI-H226 lung and in the test on SF-268 CNS was > 100 µM each time. The TGI with MDA-N, in the test on KM12 colon and in the test on HOP-62 NSCLC was > 100 µM throughout.
Take `COc1cc(CS(=O)c2ccc(O)cc2)cc(OC)c1OC` (stereo not drawn): the TGI in the test on MOLT-4 leukemia, in the test with A549 NSCLC, with HCT-15 colon, with BT-549 breast, with NCI-H226 lung and in the test on SF-268 CNS was > 100 µM each time. Besides, the TGI with MDA-N, in the test on KM12 colon and with HOP-62 NSCLC was > 100 µM throughout.
Consider `COc1ccc(N2NC(c3ccccc3)(c3ccccc3)C(C)C2=O)cc1` (stereo not drawn), for which the TGI in the test with MOLT-4 leukemia, in the test on A549 NSCLC, in the test on HCT-15 colon, in the test with BT-549 breast, in the test with NCI-H226 lung and in the test with SF-268 CNS was > 100 µM each time. Further, the TGI in the test on MDA-N, in the test on KM12 colon and with HOP-62 NSCLC was > 100 µM throughout.
Regarding `O=C1CC2CCC(C1)S2=O` (stereo not drawn), the TGI with MOLT-4 leukemia, in the test with A549 NSCLC, in the test with HCT-15 colon, in the test on BT-549 breast, in the test with NCI-H226 lung and in the test with SF-268 CNS was > 100 µM throughout. Also, the TGI with MDA-N, in the test with KM12 colon and with HOP-62 NSCLC was > 100 µM each time.
`c1ccc(CN2CCN3CCN(CC2)CCN(Cc2ccccc2)CC3)cc1`: the TGI in the test on MOLT-4 leukemia is > 56.7 µM; in the test on A549 NSCLC, > 56.1 µM; in the test with HCT-15 colon, > 88.8 µM; with BT-549 breast it was 17.6 µM; in the test on NCI-H226 lung, 19.1 µM; with SF-268 CNS, 24.7 µM. For the same compound, the TGI in the test with MDA-N is 12.2 µM; in the test with KM12 colon it was 14.6 µM; in the test with HOP-62 NSCLC it was 32.5 µM.
On to `C=C1CN(C2=NCCO2)C1`, for which the TGI in the test with MOLT-4 leukemia, in the test with A549 NSCLC, with HCT-15 colon, with BT-549 breast, in the test with NCI-H226 lung and with SF-268 CNS was > 100 µM in each case. The TGI in the test on MDA-N, in the test with KM12 colon and with HOP-62 NSCLC was > 100 µM each time.
In the case of `CC(=O)/C(=C/N1CCNC1=S)C(=O)Nc1ccccc1C`, the TGI in the test with MOLT-4 leukemia, with A549 NSCLC, in the test on HCT-15 colon, with BT-549 breast, in the test on NCI-H226 lung and in the test on SF-268 CNS was > 100 µM in each case. Further, the TGI with MDA-N, with KM12 colon and with HOP-62 NSCLC was > 100 µM throughout.
In the case of `S=c1[nH]c2ccc(I)cc2c(=S)n1Cc1ccccc1`, the TGI in the test on MOLT-4 leukemia was 13.4 µM; in the test on A549 NSCLC, > 100 µM; with HCT-15 colon, 23.3 µM; with BT-549 breast it was 27 µM; in the test with NCI-H226 lung, > 100 µM; with SF-268 CNS, 25.3 µM. The results for the TGI with MDA-N, with KM12 colon and in the test with HOP-62 NSCLC were 56.9 µM, 50.7 µM and 22.8 µM, respectively.
